From patent publication EP0500953B1, “ANTINEOPLASTIC EFFECT POTENTIATOR AND ANTINEOPLASTIC AGENT” (TAIHO PHARMACEUTICAL COMPANY LIMITED, priority 1990, dated 1992) come the findings set out here.

Series [1] relates to mouse colon cancer line COLON 26. The series is described as follows: Tumor growth inhibition, subdermally transplanted COLON 26 tumor fragment in mice (Example 1). It is filed as in vivo. The conditions noted are these: Dosage 20.0 mg/kg, orally once a day for 9 consecutive days, tumor weight on day 12. On the procedure:
(§1) A 2 mm-diameter fragment of mouse colon cancer line COLON 26 was subdermally transplanted at the back of male CDF1 mice. Beginning 24 hours after transplantation of the tumor fragment, a solution or suspension of tegafur-uracil combination drug, 5-fluorouracil and calcium folinate, the amounts of which are indicated below in Table 1, in 0.5% sodium calboxymethylcellulose (CMC) solution was administered orally once a day for 9 consecutive days. On day 12 after transplantation of the tumor fragment, the tumor was enucleated and weighed. From the ratio of the mean tumor weight in each treatment group to that in the control group, the tumor growth inhibition rate was calculated. On the other hand, the body weight of mice on the day of tumor fragment transplantation was subtracted from the body weight of mice exclusive of tumors on day 12 after transplantation and the difference was used as the index of drug-induced systemic toxicity. Furthermore, the stools passed by mice in each treatment group were examined daily and, in accordance with the method described in Japanese Journal of Cancer Research Vol. 81, 188-195 (1990), the stool property was rated on the following scale: -: normal stool (hard pellets with little moisture), ±: loose stool (normal form, moist and soft), +: loose stool (undefinable form, very moist and soft), ++: diarrheal stool (formless, watery).

Series [2] can be described thus: Body weight change as index of drug-induced systemic toxicity, COLON 26-bearing mice (Example 1). The series is classed as in vivo, male CDF1 mice. The conditions noted are these: Dosage 20.0 mg/kg, orally once a day for 9 days, day 12 vs day of transplantation. On the procedure: as §1
The nature of series [3]: Stool property rating (digestive organ toxicity), COLON 26-bearing mice (Example 1). It is filed as in vivo, male CDF1 mice. Details: key: -: normal stool (hard pellets with little moisture); ±: loose stool (normal form, moist and soft); +: loose stool (undefinable form, very moist and soft); ++: diarrheal stool (formless, watery). To be noted: Dosage 20.0 mg/kg, orally once a day for 9 days. The method, then:
as §1

With `O=c1[nH]cc(F)c(=O)[nH]1` [5-Fluorouracil, 5-fluorouracil], the “Tumor Growth inhibition rate (%)” value in series [1] (Folinic acid 0 mg/kg) is recorded as 43%; in series [1] (Folinic acid 100 mg/kg), 56%. Also, the “Change in body weight (g)” value in series [2] (Folinic acid 0 mg/kg) is reported as “+1.7 g”; in series [2] (Folinic acid 100 mg/kg), “+0.1 g”. For the same compound, the Stool property result in series [3] (Folinic acid 0 mg/kg) is “±”; in series [3] (Folinic acid 100 mg/kg), “++”.
